From patent US9465288B2, “Sulfonium salt compound, method for producing the same, and photoacid generator” (DSP GOKYO FOOD & CHEMICAL CO., LTD., priority 2012, dated 2016)

Assays:
[1] = Solubility: amount of PGMEA necessary for dissolving 100 mg of test compound; format: physicochemical; details: for PGMEA (amount necessary for dissolving the test compound): 100 mg test compound, 20±5° C., 30 minutes with 30-second strong shaking every 5 minutes, 300 μL or less desirable
Experimental: The thus obtained sulfonium salt compounds were used as test compounds. PGMEA was added to 100 mg of each test compound, and the amount of PGMEA necessary for dissolving the test compound therein after the elapse of 30 minutes by repeating 30-second strong shaking at 20±5° C. every 5 minutes was measured. Here, “dissolving” means to reach the state where no insoluble matter can be observed by visual inspection, specifically, means that the resultant solution is clear, or a mixture in an arbitrary ratio becomes transparent. […] In Table 1 below, sulfonium salt compounds with an amount of PGMEA of 300 μL or less were evaluated as having desirable properties.

[2] = Ultraviolet-visible absorption spectrum, molecular extinction coefficient at 365 nm; format: physicochemical; details: 1×10^−4 mol/L acetonitrile solution; reference range 50 to 2000
Experimental: A 1×10^−4 mol/L acetonitrile solution of each test compound was prepared, and the molecular extinction coefficient at 365 nm in the ultraviolet-visible absorption spectrum was measured using an ultraviolet-visible spectrophotometer (UV-2400PC, manufactured by SHIMADZU CORPORATION). […] Considering that light would be transmitted to a deep portion of a thick film, the reference range of the molecular extinction coefficient at 365 nm (i-line) was set to 50 to 2000. The sulfonium compounds falling within this range were evaluated as having desirable properties.

SMILES | PGMEA (amount necessary for dissolving the test compound) [1] | Molecular extinction coefficient (365 nm) [2] | Solubility in PGMEA (in words) ([1]; PGMEA)
O=S1(=O)[N-]S(=O)(=O)C(F)(F)C(F)(F)C1(F)F.c1ccc([S+](c2ccccc2)c2ccccc2)cc1 [C. Ex. 1, triphenylsulfonium 1,1,2,2,3,3-hexafluorotrimethylene imide, reference compound] | 300 µL | 0 | 
COc1ccc2ccc(OC)c([S+](c3ccccc3)c3ccccc3)c2c1.O=S1(=O)[N-]S(=O)(=O)C(F)(F)C(F)(F)C1(F)F [C. Ex. 2, 1-(2,7-dimethoxynaphthyl)diphenylsulfonium 1,1,2,2,3,3-hexafluorotrimethylene sulfone imide, reference compound] | 1400 µL | 2010 | 
CCCCOc1ccc2ccc(OCCCC)c([S+](CCCC)CCCC)c2c1.F[P-](F)(F)(F)(F)F [C. Ex. 3, 1-(2,7-di-n-butoxynaphthyl)di-n-butylsulfonium hexafluorophosphate, reference compound] | 1900 µL | 490 | exceptionally low solubility in PGMEA
O=S(=O)([N-]S(=O)(=O)C(F)(F)C(F)(F)C(F)(F)C(F)(F)F)C(F)(F)C(F)(F)C(F)(F)C(F)(F)F.c1ccc([S+](c2ccccc2)c2ccccc2)cc1 [C. Ex. 4, triphenylsulfonium di(1,1,2,2,3,3,4,4,4-nonafluorobutanesulfone)imide, reference compound] | 100 µL | 0 | 
CCCCOc1ccc2ccc(OCCCC)c([S+](c3ccccc3)c3ccccc3)c2c1.O=S(=O)([N-]S(=O)(=O)C(F)(F)C(F)(F)C(F)(F)C(F)(F)F)C(F)(F)C(F)(F)C(F)(F)C(F)(F)F [C. Ex. 5, 1-(2,7-di-n-butoxynaphthyl)diphenylsulfonium di(1,1,2,2,3,3,4,4,4-nonafluorobutanesulfone)imide, reference compound] | 100 µL | 2930 | 
CCCCOc1ccc2ccc(OCCCC)c([S+](CCCC)CCCC)c2c1.O=S(=O)([N-]S(=O)(=O)C(F)(F)C(F)(F)C(F)(F)C(F)(F)F)C(F)(F)C(F)(F)C(F)(F)C(F)(F)F [Ex. 1, 1-(2,7-di-n-butoxynaphthyl)di-n-butylsulfonium di(1,1,2,2,3,3,4,4,4-nonafluorobutanesulfone)imide] | 100 µL | 580 | 
CCCCOc1ccc2ccc(OCCCC)c([S+](C)C)c2c1.O=S(=O)([N-]S(=O)(=O)C(F)(F)C(F)(F)C(F)(F)C(F)(F)F)C(F)(F)C(F)(F)C(F)(F)C(F)(F)F [Ex. 2, 1-(2,7-di-n-butoxynaphthyl)dimethylsulfonium di(1,1,2,2,3,3,4,4,4-nonafluorobutanesulfone)imide] | 100 µL | 480 | 
CCCCOc1ccc2c(OCCCC)ccc([S+](CCCC)CCCC)c2c1.O=S(=O)([N-]S(=O)(=O)C(F)(F)C(F)(F)C(F)(F)C(F)(F)F)C(F)(F)C(F)(F)C(F)(F)C(F)(F)F [Ex. 3, 1-(4,7-di-n-butoxynaphthyl)di-n-butylsulfonium di(1,1,2,2,3,3,4,4,4-nonafluorobutanesulfone)imide] | 100 µL | 810 | 
CCCCOc1ccc2ccc(OCCCC)c([S+](CCCC)CCCC)c2c1.O=S1(=O)[N-]S(=O)(=O)C(F)(F)C(F)(F)C1(F)F [Ex. 4, 1-(2,7-di-n-butoxynaphthyl)di-n-butylsulfonium 1,1,2,2,3,3-hexafluorotrimethylene sulfone imide] | 200 µL | 700 | 
CCCCOc1cc(OCCCC)c2ccccc2c1[S+](CCCC)CCCC.O=S(=O)([N-]S(=O)(=O)C(F)(F)C(F)(F)C(F)(F)C(F)(F)F)C(F)(F)C(F)(F)C(F)(F)C(F)(F)F [Ex. 5, 1-(2,4-di-n-butoxynaphthyl)di-n-butylsulfonium di(1,1,2,2,3,3,4,4,4-nonafluorobutanesulfone)imide] | 100 µL | 100 | 
CCCCOc1ccc2ccc(OCCCC)c([S+](CCCC)CCCC)c2c1.O=S(=O)([O-])C(F)(F)C(F)(F)C(F)(F)C(F)(F)F [Ex. 6, 1-(2,7-di-n-butoxynaphthyl)di-n-butylsulfonium 1,1,2,2,3,3,4,4,4-nonafluorobutanesulfonate] | 100 µL | 690 | 
CCCCOc1ccc([S+](CCCC)CCCC)c2c(OCCCC)cccc12.O=S(=O)([N-]S(=O)(=O)C(F)(F)F)C(F)(F)F [Ex. 7, 1-(4,8-di-n-butoxynaphthyl)di-n-butylsulfonium di(1,1,1-trifluoromethanesulfone)imide] | 100 µL | 570 | 
CCCCOc1ccc([S+](CCCC)CCCC)c2c(OCCCC)cccc12.O=S(=O)([N-]S(=O)(=O)C(F)(F)C(F)(F)C(F)(F)C(F)(F)F)C(F)(F)C(F)(F)C(F)(F)C(F)(F)F [Ex. 8, 1-(4,8-di-n-butoxynaphthyl)di-n-butylsulfonium di(1,1,2,2,3,3,4,4,4-nonafluorobutanesulfone)imide] | 100 µL | 620 | 
CCCCOc1ccc2ccc(OCCCC)c([S+](CCCC)CCCC)c2c1.O=S(=O)([N-]S(=O)(=O)C(F)(F)F)C(F)(F)F [Ex. 9, 1-(2,7-di-n-butoxynaphthyl)di-n-butylsulfonium di(1,1,1-trifluoromethanesulfone)imide] | 200 µL | 560 | 
CCCCOc1ccc2c(OCCCC)ccc([S+](CCCC)CCCC)c2c1.O=S(=O)([N-]S(=O)(=O)C(F)(F)F)C(F)(F)F [Ex. 10, 1-(4,7-di-n-butoxynaphthyl)di-n-butylsulfonium di(1,1,1-trifluoromethanesulfone)imide] | 100 µL | 940 | 
CCCCCCCCOc1ccc2ccc(OCCCCCCCC)c([S+](C)C)c2c1.O=S(=O)([N-]S(=O)(=O)C(F)(F)F)C(F)(F)F [Ex. 11, 1-(2,7-di-n-octoxynaphthyl)dimethylsulfonium di(1,1,1-trifluoromethanesulfone)imide] | 100 µL | 440 | 
CCCCOc1ccc2ccc(OCCCC)c([S+](C(C)C)C(C)C)c2c1.O=S(=O)([N-]S(=O)(=O)C(F)(F)F)C(F)(F)F [Ex. 12, 1-(2,7-di-n-butoxynaphthyl)diisopropyl sulfonium di(1,1,1-trifluoromethanesulfone)imide] | 100 µL | 880 | 
CCCCOc1ccc2ccc(OCCCC)c([S+](C(C)C)C(C)C)c2c1.O=S(=O)([N-]S(=O)(=O)C(F)(F)C(F)(F)C(F)(F)C(F)(F)F)C(F)(F)C(F)(F)C(F)(F)C(F)(F)F [Ex. 13, 1-(2,7-di-n-butoxynaphthyl)diisopropyl sulfonium di(1,1,2,2,3,3,4,4,4-nonafluorobutanesulfone)imide] | 100 µL | 1030 | 
